Experimental data: US8471005B2 (Cephalon, Inc., priority 2008, dated 2013)
pIC50: −log10 of the molar value. Like-named read-outs stand apart in the source and are kept apart here.

Key:
JAK2 = biological target: T1, JAK2 (Homo sapiens, UniProt O60674); experiment: Recombinant Human JAK2 Kinase Assay (TRF); format: biochemical; details: read-out: JAK2 Potency
T1 construct: host or cells: baculovirus expression system
Method in brief: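 Baculovirus-expressed JAK2 (15 ng/ml) phosphorylated a biotinylated 15-mer peptide captured on Neutravidin-coated plates, in 20 mM HEPES pH 7.2 with 0.2 μM ATP, 1 mM MnCl2, 0.1% BSA and 2.5% DMSO. Reaction ran 20 min at room temperature; phosphopeptide was detected by time-resolved fluorescence with Eu-N1-labelled PY100 antibody.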

ALK = biological target: T2, ALK (Homo sapiens, UniProt Q9UM73); experiment: ALK Kinase Assay (ELISA/TRF, PLC-γ substrate); format: biochemical; details: read-out: ALK Potency
T2 construct: host or cells: baculovirus expression system
T2 sequence (Q9UM73 19-1620): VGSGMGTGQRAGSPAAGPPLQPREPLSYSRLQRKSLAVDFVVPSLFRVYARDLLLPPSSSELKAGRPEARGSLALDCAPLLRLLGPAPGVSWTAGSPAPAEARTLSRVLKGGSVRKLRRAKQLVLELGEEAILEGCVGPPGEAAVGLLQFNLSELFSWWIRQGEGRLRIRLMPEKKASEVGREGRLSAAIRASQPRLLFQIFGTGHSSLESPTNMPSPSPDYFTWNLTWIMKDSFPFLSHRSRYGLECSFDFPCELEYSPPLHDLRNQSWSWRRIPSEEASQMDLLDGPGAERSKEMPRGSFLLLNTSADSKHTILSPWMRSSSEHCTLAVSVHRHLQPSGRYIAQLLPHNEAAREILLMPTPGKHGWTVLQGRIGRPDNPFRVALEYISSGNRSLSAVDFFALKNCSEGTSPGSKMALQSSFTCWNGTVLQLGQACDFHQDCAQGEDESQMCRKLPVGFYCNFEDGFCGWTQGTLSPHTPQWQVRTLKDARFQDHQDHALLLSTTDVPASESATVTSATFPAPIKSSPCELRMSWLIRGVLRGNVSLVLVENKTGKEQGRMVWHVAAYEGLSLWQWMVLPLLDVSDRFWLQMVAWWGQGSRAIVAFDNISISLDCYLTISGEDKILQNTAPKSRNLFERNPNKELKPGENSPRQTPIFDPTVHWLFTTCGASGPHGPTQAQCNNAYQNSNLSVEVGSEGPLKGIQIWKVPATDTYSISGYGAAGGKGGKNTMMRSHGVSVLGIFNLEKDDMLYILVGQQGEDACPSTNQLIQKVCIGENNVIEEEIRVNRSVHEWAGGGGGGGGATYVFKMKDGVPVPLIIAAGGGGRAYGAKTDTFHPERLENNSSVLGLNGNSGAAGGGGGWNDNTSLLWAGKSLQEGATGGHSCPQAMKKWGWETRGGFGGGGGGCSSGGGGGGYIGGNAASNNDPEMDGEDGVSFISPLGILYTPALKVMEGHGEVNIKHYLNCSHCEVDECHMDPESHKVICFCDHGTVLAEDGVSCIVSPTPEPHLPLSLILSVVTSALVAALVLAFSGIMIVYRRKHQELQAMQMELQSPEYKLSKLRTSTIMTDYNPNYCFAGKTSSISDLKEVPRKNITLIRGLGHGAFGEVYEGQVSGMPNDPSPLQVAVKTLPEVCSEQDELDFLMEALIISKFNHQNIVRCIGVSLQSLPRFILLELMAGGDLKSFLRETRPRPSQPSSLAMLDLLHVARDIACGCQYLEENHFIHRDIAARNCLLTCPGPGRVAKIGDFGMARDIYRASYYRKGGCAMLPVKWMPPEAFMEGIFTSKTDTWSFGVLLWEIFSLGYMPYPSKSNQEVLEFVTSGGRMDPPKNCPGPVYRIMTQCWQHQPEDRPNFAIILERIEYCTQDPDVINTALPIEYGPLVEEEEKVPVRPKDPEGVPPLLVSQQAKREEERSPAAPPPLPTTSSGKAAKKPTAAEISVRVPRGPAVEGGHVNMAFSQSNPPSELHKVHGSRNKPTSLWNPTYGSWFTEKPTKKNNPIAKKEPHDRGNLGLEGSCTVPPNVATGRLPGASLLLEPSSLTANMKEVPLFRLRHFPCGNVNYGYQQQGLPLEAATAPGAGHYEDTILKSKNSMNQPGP
Method in brief: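 Wells were coated with 10 μg/mL phospholipase C-γ substrate in TBS, and the reaction was started by adding 30 ng/ml ALK enzyme and run at 37° C for 15 minutes. Phosphorylated product was detected with Eu-N1-labeled PT66 antibody, and IC50 values came from sigmoidal variable-slope fits of percent inhibition against log concentration.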

[1] = JAK2 kinase inhibition, 0.2 μM ATP
[2] = ALK kinase inhibition, 1 μM ATP

T1 sequence (O60674 whole entry): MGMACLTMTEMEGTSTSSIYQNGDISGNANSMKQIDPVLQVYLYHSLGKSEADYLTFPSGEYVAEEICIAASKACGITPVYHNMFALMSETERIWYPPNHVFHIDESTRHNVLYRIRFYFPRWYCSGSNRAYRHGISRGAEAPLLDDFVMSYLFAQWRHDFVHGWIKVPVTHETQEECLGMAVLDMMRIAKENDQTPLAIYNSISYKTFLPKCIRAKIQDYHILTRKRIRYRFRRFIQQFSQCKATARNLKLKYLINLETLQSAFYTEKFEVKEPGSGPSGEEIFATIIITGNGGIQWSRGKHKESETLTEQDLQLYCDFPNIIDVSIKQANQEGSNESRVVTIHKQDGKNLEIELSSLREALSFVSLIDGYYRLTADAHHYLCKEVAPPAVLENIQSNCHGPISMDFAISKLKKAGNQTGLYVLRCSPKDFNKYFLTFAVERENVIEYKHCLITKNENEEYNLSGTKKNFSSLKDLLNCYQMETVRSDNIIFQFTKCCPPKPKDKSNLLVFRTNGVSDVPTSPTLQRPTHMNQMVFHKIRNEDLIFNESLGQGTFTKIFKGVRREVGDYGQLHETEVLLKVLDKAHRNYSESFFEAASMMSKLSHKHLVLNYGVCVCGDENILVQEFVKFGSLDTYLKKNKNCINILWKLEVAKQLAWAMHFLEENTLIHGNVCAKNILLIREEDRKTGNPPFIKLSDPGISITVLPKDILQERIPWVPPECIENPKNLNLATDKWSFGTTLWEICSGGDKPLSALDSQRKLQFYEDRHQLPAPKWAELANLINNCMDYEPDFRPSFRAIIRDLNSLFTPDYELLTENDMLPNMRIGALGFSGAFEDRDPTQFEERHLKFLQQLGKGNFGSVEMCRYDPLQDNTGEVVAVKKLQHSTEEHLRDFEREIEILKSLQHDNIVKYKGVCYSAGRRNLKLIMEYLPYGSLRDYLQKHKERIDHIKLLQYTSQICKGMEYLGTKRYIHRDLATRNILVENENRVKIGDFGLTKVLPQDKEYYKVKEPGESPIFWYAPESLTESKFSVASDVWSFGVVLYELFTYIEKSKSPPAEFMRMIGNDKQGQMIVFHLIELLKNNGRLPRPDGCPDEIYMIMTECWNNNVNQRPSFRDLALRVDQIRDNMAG

| Structure (SMILES) | pIC50 (JAK2; JAK2 Kinase Inhibition) | pIC50 (ALK; ALK Kinase Inhibition) | pIC50 (JAK2; [1]) | pIC50 (ALK; [2]) |
| --- | --- | --- | --- | --- |
| NC(=O)c1cccc(Nc2ncc3ccc(-c4cccc(Cl)c4)n3n2)c1 [Example 165, 3-[7-(3-Chloro-phenyl)-pyrrolo[2,1-f][1,2,4]triazin-2-ylamino]-benzamide] | > 7.00 | 5.00 to 6.00 | – | – |
| COc1ccc(-c2ccc3cnc(Nc4ccc(N5CCN(C)CC5)cc4OC)nn23)cn1 [Example 73, [2-Methoxy-4-(4-methyl-piperazin-1-yl)-phenyl]-[7-(6-methoxy-pyridin-3-yl)-pyrrolo[2,1-f][1,2,4]triazin-2-yl]-amine] | > 7.00 | > 7.00 | – | – |
| COc1ccccc1-c1ccc2cnc(Nc3ccc4c(c3)NC(=O)C4(C)C)nn12 [Example 656, 6-[7-(2-Methoxy-phenyl)-pyrrolo[2,1-f][1,2,4]triazin-2-ylamino]-3,3-dimethyl-1,3-dihydro-indol-2-one] | – | – | > 7.00 | 6.00 to 7.00 |
| COc1ccc(Nc2ncc3ccc(-c4cccc(Cl)c4)n3n2)cc1 [Example 155, [7-(3-Chloro-phenyl)-pyrrolo[2,1-f][1,2,4]triazin-2-yl]-(4-methoxy-phenyl)-amine] | > 7.00 | < 5.00 | – | – |
| Fc1ccc(Nc2ncc3ccc(-c4cccnc4)n3n2)cc1N1CCOCC1 [Example 391, (4-Fluoro-3-morpholin-4-yl-phenyl)-(7-pyridin-3-yl-pyrrolo[2,1-f][1,2,4]triazin-2-yl)-amine] | > 7.00 | 5.00 to 6.00 | – | – |
| COc1ccccc1-c1ccc2cnc(Nc3ccc(N4CCCC(N5CCOCC5)C4)cc3)nn12 (centres unmarked) [Example 343, [7-(2-Methoxy-phenyl)-pyrrolo[2,1-f][1,2,4]triazin-2-yl]-[4-(3-morpholin-4-yl-piperidin-1-yl)-phenyl]-amine] | > 7.00 | > 7.00 | – | – |
| COc1ccc(Cl)cc1-c1ccc2cnc(Nc3ccc(N4CCCC(N5CCOCC5)C4)cc3)nn12 (centres unmarked) [Example 344, [7-(5-Chloro-2-methoxy-phenyl)-pyrrolo[2,1-f][1,2,4]triazin-2-yl]-[4-(3-morpholin-4-yl-piperidin-1-yl)-phenyl]-amine] | > 7.00 | > 7.00 | – | – |
| COc1ccc(Cl)cc1-c1ccc2cnc(Nc3ccc(N4CCOCC4)cc3)nn12 [Example 3, [7-(5-Chloro-2-methoxy-phenyl)-pyrrolo[2,1-f][1,2,4]triazin-2-yl]-(4-morpholin-4-yl-phenyl)-amine] | > 7.00 | 6.00 to 7.00 | – | – |
| CN1CCN(C(=O)C2CCN(c3ccc(Nc4ncc5ccc(-c6ccc(Cl)cc6O)n5n4)cc3)CC2)CC1 [Example 485, (1-{4-[7-(4-Chloro-2-hydroxy-phenyl)-pyrrolo[2,1-f][1,2,4]triazin-2-ylamino]-phenyl}-piperidin-4-yl)-(4-methyl-piperazin-1-yl)-methanone] | – | – | > 7.00 | 6.00 to 7.00 |
| Cn1cc(-c2ccc3cnc(Nc4ccc(N5CCOCC5)cc4)nn23)cn1 [Example 10, [7-(1-Methyl-1H-pyrazol-4-yl)-pyrrolo[2,1-f][1,2,4]triazin-2-yl]-(4-morpholin-4-yl-phenyl)-amine] | > 7.00 | 5.00 to 6.00 | – | – |
| COc1cc(N2CCC(N3CCOCC3)CC2)ccc1Nc1ncc2ccc(-c3cccc4cccnc34)n2n1 [Example 512, [2-Methoxy-4-(4-morpholin-4-yl-piperidin-1-yl)-phenyl]-(7-quinolin-8-yl-pyrrolo[2,1-f][1,2,4]triazin-2-yl)-amine] | – | – | 5.00 to 6.00 | 6.00 to 7.00 |
| CN(c1ccccc1-c1ccc2cnc(Nc3ccc4c(c3)CCC(N3CCOCC3)CC4)nn12)S(C)(=O)=O (centres unmarked) [Example 615, N-Methyl-N-{2-[2-(7-morpholin-4-yl-6,7,8,9-tetrahydro-5H-benzocyclohepten-2-ylamino)-pyrrolo[2,1-f][1,2,4]triazin-7-yl]-phenyl}-methanesulfonamide] | – | – | > 7.00 | > 7.00 |

Further lines, results first:

| pIC50 (JAK2; JAK2 Kinase Inhibition) | pIC50 (ALK; ALK Kinase Inhibition) | pIC50 (JAK2; [1]) | pIC50 (ALK; [2]) | Structure (SMILES) |
| --- | --- | --- | --- | --- |
| – | – | 6.00 to 7.00 | > 7.00 | COc1cc2c(cc1Nc1ncc3ccc(-c4ccccc4N(C)S(C)(=O)=O)n3n1)CCCC(N1CCOCC1)C2 (centres unmarked) [Example 993, N-{2-[2-(3-Methoxy-6-morpholin-4-yl-6,7,8,9-tetrahydro-5H-benzocyclohepten-2-ylamino)-pyrrolo[2,1-f][1,2,4]triazin-7-yl]-phenyl}-N-methyl-methanesulfonamide] |
| > 7.00 | 5.00 to 6.00 | – | – | CC(C)(C)NS(=O)(=O)c1cccc(-c2ccc3cnc(Nc4ccc(-c5cnco5)cc4)nn23)c1 [Example 1402, N-tert-Butyl-3-[2-(4-oxazol-5-yl-phenylamino)-pyrrolo[2,1-f][1,2,4]triazin-7-yl]-benzenesulfonamide] |
| – | – | > 7.00 | 5.00 to 6.00 | Cn1ncc2ccc(Nc3ncc4ccc(-c5cccc(S(=O)(=O)CC6CC6)c5)n4n3)cc21 [Example 1321, [7-(3-Cyclopropylmethanesulfonyl-phenyl)-pyrrolo[2,1-f][1,2,4]triazin-2-yl]-(1-methyl-1H-indazol-6-yl)-amine] |
| – | – | > 7.00 | 5.00 to 6.00 | CCS(=O)(=O)c1cccc(-c2ccc3cnc(Nc4ccc5ncn(C)c5c4)nn23)c1 [Example 1312, [7-(3-Ethanesulfonyl-phenyl)-pyrrolo[2,1-f][1,2,4]triazin-2-yl]-(3-methyl-3H-benzimidazol-5-yl)-amine] |
| – | – | 6.00 to 7.00 | > 7.00 | COc1cc(CN2CCN(C[C@@H](O)CO)CC2)ccc1Nc1ncc2ccc(-c3ccccc3N(C)S(C)(=O)=O)n2n1 [Example 1228, N-[2-(2-{4-[4-((R)-2,3-Dihydroxy-propyl)-piperazin-1-ylmethyl]-2-methoxy-phenylamino}-pyrrolo[2,1-f][1,2,4]triazin-7-yl)-phenyl]-N-methyl-methanesulfonamide] |
| > 7.00 | 5.00 to 6.00 | – | – | OCc1cccc(-c2ccc3cnc(Nc4cccc(N5CCOCC5)c4)nn23)c1 [Example 1561, {3-[2-(3-Morpholin-4-yl-phenylamino)-pyrrolo[2,1-f][1,2,4]triazin-7-yl]-phenyl}-methanol] |
| 6.00 to 7.00 | > 7.00 | – | – | COc1cc(N2CCN(C[C@H](C)O)CC2)c(F)cc1Nc1ncc2ccc(-c3ccccc3OC)n2n1 [Example 1480, (S)-1-(4-{2-Fluoro-5-methoxy-4-[7-(2-methoxy-phenyl)-pyrrolo[2,1-f][1,2,4]triazin-2-ylamino]-phenyl}-piperazin-1-yl)-propan-2-ol] |
| – | – | > 7.00 | > 7.00 | N#CCCc1cccc(-c2ccc3cnc(Nc4ccc(N5CCN(CCO)CC5)cc4)nn23)c1 [Example 1151, 3-[3-(2-{4-[4-(2-Hydroxy-ethyl)-piperazin-1-yl]-phenylamino}-pyrrolo[2,1-f][1,2,4]triazin-7-yl)-phenyl]-propionitrile] |
| – | – | 6.00 to 7.00 | > 7.00 | COc1cc(C2CCN(C(=O)C3CCN3)CC2)ccc1Nc1ncc2ccc(-c3ccccc3OC)n2n1 (racemic) [Example 862, (±)-Azetidin-2-yl-(4-{3-methoxy-4-[7-(2-methoxy-phenyl)-pyrrolo[2,1-f][1,2,4]triazin-2-ylamino]-phenyl}-piperidin-1-yl)-methanone] |
| – | – | > 7.00 | 6.00 to 7.00 | CN1CCCC1COc1cc(Nc2ncc3ccc(-c4cccc(S(=O)(=O)NC(C)(C)C)c4)n3n2)ccc1Cl (centres unmarked) [Example 1009, N-tert-Butyl-3-{2-[4-chloro-3-(1-methyl-pyrrolidin-2-ylmethoxy)-phenylamino]-pyrrolo[2,1-f][1,2,4]triazin-7-yl}-benzenesulfonamide] |
